Usually IC50 stands for the midpoint of a concentration-inhibition curve. A higher IC50 goes with weaker potency in that assay. Usually inhibition stands for the change of the read-out against control, counted positive when it falls.

In US11104680B2, “1,5-dihydro-4H-pyrazolo[3,4-d]pyrimidin-4-ones and 1,5-dihydro-4H-pyrazolo[4,3-c]pyridin-4-ones as PDE1 inhibitors” (H. Lundbeck A/S, priority 2016, dated 2021) one finds IC50 and inhibition data, which are given here for 27 compounds.

What all share (format): biochemical
One assay has as its target PDE1C (Homo sapiens (Human), UniProt Q14123). As to the kind of experiment: PDE1 inhibition assay (PDE1C), SPA. The following applies: 15 nM tritium labelled cAMP.
Another assay has as its target PDE1A (Homo sapiens (Human), UniProt P54750). As to the kind of experiment: PDE1 inhibition assay (PDE1A), SPA. The note with it: 15 nM tritium labelled cAMP.
The next assay has as its target PDE9 (Homo sapiens (Human), UniProt O76083). As to the kind of experiment: PDE9 inhibition assay, SPA.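 Note: enzyme reaction incubated for 1 h, then stopped by adding yttrium silicate scintillation proximity beads for the read-out.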 The note with it: 10 microM compound; 10 nM 3H-cAMP.
The target of another assay is PDE1B (Homo sapiens (Human), UniProt Q01064). Put plainly: PDE1 inhibition assay (PDE1B), SPA. The note with it: 15 nM tritium labelled cAMP.
Sequence of PDE1B (Q01064 whole entry): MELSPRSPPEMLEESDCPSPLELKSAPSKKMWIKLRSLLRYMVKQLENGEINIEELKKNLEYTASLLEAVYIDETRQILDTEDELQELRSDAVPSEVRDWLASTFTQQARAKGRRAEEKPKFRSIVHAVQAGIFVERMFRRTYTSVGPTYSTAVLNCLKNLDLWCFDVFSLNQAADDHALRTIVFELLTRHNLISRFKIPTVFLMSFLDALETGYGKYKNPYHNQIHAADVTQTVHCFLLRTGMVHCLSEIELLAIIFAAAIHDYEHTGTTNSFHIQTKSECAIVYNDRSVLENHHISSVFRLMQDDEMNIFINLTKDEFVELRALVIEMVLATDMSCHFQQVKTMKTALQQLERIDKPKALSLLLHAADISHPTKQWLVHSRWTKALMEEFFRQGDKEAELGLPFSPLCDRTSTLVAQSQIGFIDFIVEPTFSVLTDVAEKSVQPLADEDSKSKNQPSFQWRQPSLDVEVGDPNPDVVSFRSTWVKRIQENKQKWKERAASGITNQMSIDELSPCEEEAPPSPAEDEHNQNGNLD

Sequence of PDE1C (Q14123 whole entry): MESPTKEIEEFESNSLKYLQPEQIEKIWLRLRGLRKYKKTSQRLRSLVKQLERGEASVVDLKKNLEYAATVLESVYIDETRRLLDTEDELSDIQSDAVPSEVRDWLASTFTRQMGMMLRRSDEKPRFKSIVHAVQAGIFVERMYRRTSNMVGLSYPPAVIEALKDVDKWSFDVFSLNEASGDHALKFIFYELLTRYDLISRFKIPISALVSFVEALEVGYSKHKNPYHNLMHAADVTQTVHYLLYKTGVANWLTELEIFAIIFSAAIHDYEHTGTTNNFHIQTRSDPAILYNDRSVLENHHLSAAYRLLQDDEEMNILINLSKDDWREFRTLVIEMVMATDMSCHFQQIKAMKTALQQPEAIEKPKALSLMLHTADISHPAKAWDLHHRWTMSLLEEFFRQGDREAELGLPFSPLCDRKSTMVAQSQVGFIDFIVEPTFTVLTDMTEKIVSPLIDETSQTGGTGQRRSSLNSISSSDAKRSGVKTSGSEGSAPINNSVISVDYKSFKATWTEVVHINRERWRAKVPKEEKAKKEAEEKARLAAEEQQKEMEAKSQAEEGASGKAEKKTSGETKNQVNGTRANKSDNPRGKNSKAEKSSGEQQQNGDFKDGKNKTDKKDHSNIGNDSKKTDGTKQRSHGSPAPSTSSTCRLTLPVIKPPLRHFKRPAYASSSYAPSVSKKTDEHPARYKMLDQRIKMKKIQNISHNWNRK
Sequence of PDE1A (P54750 whole entry): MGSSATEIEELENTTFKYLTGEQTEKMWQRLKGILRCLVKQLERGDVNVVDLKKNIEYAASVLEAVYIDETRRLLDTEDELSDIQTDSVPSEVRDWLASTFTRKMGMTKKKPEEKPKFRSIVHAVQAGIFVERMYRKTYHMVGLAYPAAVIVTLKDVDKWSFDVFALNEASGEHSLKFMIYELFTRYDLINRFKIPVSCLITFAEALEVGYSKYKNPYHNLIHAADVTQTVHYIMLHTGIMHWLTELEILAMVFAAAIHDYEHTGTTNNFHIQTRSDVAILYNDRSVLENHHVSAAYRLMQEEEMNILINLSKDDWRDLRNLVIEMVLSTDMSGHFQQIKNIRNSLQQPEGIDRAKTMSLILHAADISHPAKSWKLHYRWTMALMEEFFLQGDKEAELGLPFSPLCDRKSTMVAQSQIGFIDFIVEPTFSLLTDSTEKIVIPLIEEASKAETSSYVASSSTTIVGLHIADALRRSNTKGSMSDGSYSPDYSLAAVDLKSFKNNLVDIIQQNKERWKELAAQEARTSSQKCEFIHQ
Sequence of PDE9 (O76083 whole entry): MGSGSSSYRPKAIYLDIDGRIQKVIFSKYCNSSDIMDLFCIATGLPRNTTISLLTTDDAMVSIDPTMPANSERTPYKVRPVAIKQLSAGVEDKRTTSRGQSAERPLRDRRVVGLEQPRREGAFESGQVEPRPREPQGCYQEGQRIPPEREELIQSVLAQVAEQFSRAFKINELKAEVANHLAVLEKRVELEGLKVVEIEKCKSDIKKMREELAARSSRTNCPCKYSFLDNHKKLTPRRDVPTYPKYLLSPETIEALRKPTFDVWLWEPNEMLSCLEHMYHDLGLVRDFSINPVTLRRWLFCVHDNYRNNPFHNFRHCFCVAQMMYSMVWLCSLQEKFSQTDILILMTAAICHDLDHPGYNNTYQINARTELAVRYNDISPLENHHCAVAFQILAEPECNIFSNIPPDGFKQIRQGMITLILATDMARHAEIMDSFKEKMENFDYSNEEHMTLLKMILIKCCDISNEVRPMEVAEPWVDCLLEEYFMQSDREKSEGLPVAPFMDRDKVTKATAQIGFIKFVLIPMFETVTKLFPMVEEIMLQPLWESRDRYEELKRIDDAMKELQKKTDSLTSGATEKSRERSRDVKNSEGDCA
Protocol for PDE1A: (§1) Reactions were initiated by addition of the cyclic nucleotide substrate, and reactions were allowed to proceed for 1 hr at room temperature before being terminated through mixing with 20 μL (0.2 mg) yttrium silicate SPA beads (PerkinElmer). The beads were allowed to settle for 1 hr in the dark before the plates were counted in a Wallac 1450 Microbeta counter.
Protocol for PDE1B: Reactions were initiated by addition of the cyclic nucleotide substrate, and reactions were allowed to proceed for 1 hr at room temperature before being terminated through mixing with 20 μL (0.2 mg) yttrium silicate SPA beads (PerkinElmer).
Protocol for PDE1C: as §1
Protocol for PDE9: Reactions are initiated by addition of the cyclic nucleotide substrate, and reactions are allowed to proceed for one hr at room temperature before being terminated through mixing with 15 μL 8 mg/mL yttrium silicate SPA beads (Amersham).
Following 1 hr incubation the reactions were terminated by addition of 15 uL 8 mg/mL yttrium silicate SPA beads (Amersham).

Regarding `COc1ccc(Cn2c(C)cc3c(cnn3[C@@H]3CCO[C@H]3C)c2=O)cc1` (relative stereo) [Example 26, 5-[(4-methoxyphenyl)methyl]-6-methyl-1-[(trans)-2-methyltetrahydrofuran-3-yl]pyrazolo[4,3-c]pyridin-4-one], the IC50 amounted to 345 nM at PDE1C, 206 nM against PDE1A and 83 nM at PDE1B. Also, the inhibition at 10 µM against PDE9 worked out at 8%.
On to `COc1ccc(Cn2c(C)cc3c(cnn3[C@@H]3CCO[C@@H]3C)c2=O)cc1` (relative stereo) [Example 27, 5-[(4-methoxyphenyl)methyl]-6-methyl-1-[(cis)-2-methyltetrahydrofuran-3-yl]pyrazolo[4,3-c]pyridin-4-one], for which the figures for the IC50 against PDE1C, at PDE1A and at PDE1B were 686 nM, 1300 nM and 179 nM, respectively. For the same compound, at PDE9, the inhibition at 10 µM stood at 13%.
Taken in the same sequence, the figures for `O=c1c2cnn(C3CCOCC3)c2nc(Cc2ccccc2)n1CC1CCCCC1` [Example 1, 6-benzyl-5-(cyclohexylmethyl)-1-(tetrahydro-2H-pyran-4-yl)-1,5-dihydro-4H-pyrazolo[3,4-d]pyrimidin-4-one] were 120 nM, 349 nM, 320 nM and 51%.
Taken in the same sequence, the figures for `COc1ccc(Cn2c(C)nc3c(cnn3C3CCOCC3)c2=O)cc1` [Example 2, 5-(4-methoxybenzyl)-6-methyl-1-(tetrahydro-2H-pyran-4-yl)-1H-pyrazolo[3,4-d]pyrimidin-4(5H)-one] were 74 nM, 132 nM, 62 nM and 10%.
The like results for `Cc1nc2c(cnn2C2CCOCC2)c(=O)n1CC1CCCCC1` [Example 3, 5-(cyclohexylmethyl)-6-methyl-1-tetrahydropyran-4-yl-pyrazolo[3,4-d]pyrimidin-4-one] were, in that order, 29 nM, 172 nM, 103 nM and 29%.
For `CCCn1ncc2c(=O)n(Cc3ccc(OC)cc3)c(C)nc21` [Example 4, 5-[(4-methoxyphenyl)methyl]-6-methyl-1-propyl-pyrazolo[3,4-d]pyrimidin-4-one], the IC50 on PDE1C stood at 72 nM; against PDE1A, 108 nM; against PDE1B, 68 nM. In addition, on PDE9, the inhibition at 10 µM was found to be 13%.
Taken in the same sequence, the figures for `CCCn1ncc2c(=O)n(CC3CCCCC3)c(C)nc21` [Example 5, 5-(cyclohexylmethyl)-6-methyl-1-propyl-pyrazolo[3,4-d]pyrimidin-4-one] were 36 nM, 111 nM, 31 nM and -16%.
Regarding `CCc1nc2c(cnn2C2CCOCC2)c(=O)n1Cc1ccc(OC)cc1` [Example 6, 6-ethyl-5-[(4-methoxyphenyl)methyl]-1-tetrahydropyran-4-yl-pyrazolo[3,4-d]pyrimidin-4-one], the IC50 against PDE1C amounted to 140 nM; against PDE1A, 107 nM; at PDE1B, 80 nM. Moreover, on PDE9, the inhibition at 10 µM came to 2%.
For the compound `COCc1nc2c(cnn2C2CCOCC2)c(=O)n1Cc1ccc(OC)cc1` [Example 7, 6-(methoxymethyl)-5-[(4-methoxyphenyl)methyl]-1-tetrahydropyran-4-yl-pyrazolo[3,4-d]pyrimidin-4-one], the IC50 at PDE1C was 345 nM; on PDE1A it was 325 nM; at PDE1B, 181 nM. Also, the inhibition at 10 µM at PDE9 is -12%.
On to `COc1ccc(Cn2c(C(C)C)nc3c(cnn3C3CCOCC3)c2=O)cc1` [Example 8, 6-isopropyl-5-[(4-methoxyphenyl)methyl]-1-tetrahydropyran-4-yl-pyrazolo[3,4-d]pyrimidin-4-one], for which the IC50 was determined as 1320 nM against PDE1C, 751 nM at PDE1A and 211 nM against PDE1B. The inhibition at 10 µM against PDE9 was 7%.
On to `COc1ccc(Cn2c(CC3COC3)nc3c(cnn3C3CCOCC3)c2=O)cc1` [Example 9, 5-[(4-methoxyphenyl)methyl]-6-(oxetan-3-ylmethyl)-1-tetrahydropyran-4-yl-pyrazolo[3,4-d]pyrimidin-4-one], for which the values for the IC50 on PDE1C and at PDE1B were 165 nM and 58 nM, respectively. For the same compound, the inhibition at 10 µM against PDE9 came to 12%.
For the compound `Cc1cc2c(cnn2C2CCOCC2)c(=O)n1Cc1cccc(F)c1` [Example 10, 5-[(3-fluorophenyl)methyl]-6-methyl-1-tetrahydropyran-4-yl-pyrazolo[4,3-c]pyridin-4-one], the IC50 on PDE1C was 149 nM; at PDE1A, 1070 nM. In addition, the inhibition at 10 µM against PDE9 was determined as 3%.
Taken in the same sequence, the figures for `Cc1cc2c(cnn2C2CCOCC2)c(=O)n1Cc1ccccc1F` [Example 11, 5-[(2-fluorophenyl)methyl]-6-methyl-1-tetrahydropyran-4-yl-pyrazolo[4,3-c]pyridin-4-one] were 61 nM, 589 nM and 12%.
The like results for `Cc1cc2c(cnn2C2CCOCC2)c(=O)n1Cc1ccc(Cl)cc1` [Example 12, 5-[(4-chlorophenyl)methyl]-6-methyl-1-tetrahydropyran-4-yl-pyrazolo[4,3-c]pyridin-4-one] were, in that order, 419 nM, 127 nM and 16%.
Taken in the same sequence, the figures for `Cc1cc2c(cnn2C2CCOCC2)c(=O)n1Cc1ccccc1` [Example 13, 5-benzyl-6-methyl-1-tetrahydropyran-4-yl-pyrazolo[4,3-c]pyridin-4-one] were 135 nM, 1260 nM and -18%.
Take `Cc1cc2c(cnn2C2CCOCC2)c(=O)n1Cc1cccc(Cl)c1` [Example 14, 5-[(3-chlorophenyl)methyl]-6-methyl-1-tetrahydropyran-4-yl-pyrazolo[4,3-c]pyridin-4-one]: the IC50 at PDE1C is 95 nM; against PDE1A it was 1300 nM; at PDE1B, 413 nM. Further, the inhibition at 10 µM at PDE9 was -15%.
Taken in the same sequence, the figures for `Cc1cc2c(cnn2C2CCOCC2)c(=O)n1Cc1ccc(F)cc1` [Example 15, 5-[(4-fluorophenyl)methyl]-6-methyl-1-tetrahydropyran-4-yl-pyrazolo[4,3-c]pyridin-4-one] were 204 nM, 1240 nM, 258 nM and -13%.
Taken in the same sequence, the figures for `Cc1ccc(Cn2c(C)cc3c(cnn3C3CCOCC3)c2=O)cc1` [Example 16, 6-methyl-5-(p-tolylmethyl)-1-tetrahydropyran-4-yl-pyrazolo[4,3-c]pyridin-4-one] were 496 nM, 400 nM, 71 nM and -1%.
The like results for `Cc1cc2c(cnn2C2CCOCC2)c(=O)n1Cc1ccc2c(c1)OCO2` [Example 17, 5-(1,3-benzodioxol-5-ylmethyl)-6-methyl-1-tetrahydropyran-4-yl-pyrazolo[4,3-c]pyridin-4-one] were, in that order, 662 nM, 429 nM, 154 nM and -2%.
With `COc1ccc(Cn2c(C)cc3c(cnn3C3CCOCC3)c2=O)cn1` [Example 18, 5-[(6-methoxy-3-pyridyl)methyl]-6-methyl-1-tetrahydropyran-4-yl-pyrazolo[4,3-c]pyridin-4-one], the IC50 was found to be 1170 nM against PDE1C and 738 nM against PDE1A. Also, the inhibition at 10 µM against PDE9 turned out to be 9%.
As for `COc1ccc(Cn2c(C)cc3c(cnn3C3CCOCC3)c2=O)cc1` [Example 19, 5-(4-methoxybenzyl)-6-methyl-1-(tetrahydro-2H-pyran-4-yl)-1,5-dihydro-4H-pyrazolo[4,3-c]pyridin-4-one], the concentration for half-maximal inhibition (IC50) stood at 171 nM on PDE1C and 184 nM against PDE1A. At PDE9, the inhibition at 10 µM was 19%.
As to `CCCn1ncc2c(=O)n(Cc3ccc(OC)cc3)c(C)cc21` [Example 20, 5-(4-methoxybenzyl)-6-methyl-1-propyl-1,5-dihydro-4H-pyrazolo[4,3-c]pyridin-4-one], the results for the IC50 on PDE1C, at PDE1A and at PDE1B were 233 nM, 290 nM and 82 nM, respectively. Further, the inhibition at 10 µM against PDE9 came out at 19%.
Taken in the same sequence, the figures for `COc1ccc(Cn2c(C)cc3c(cnn3C(C)C)c2=O)cc1` [Example 21, 1-isopropyl-5-[(4-methoxyphenyl)methyl]-6-methyl-pyrazolo[4,3-c]pyridin-4-one] were 134 nM, 49 nM, 37 nM and -14%.
The like results for `COc1ccc(Cn2c(C)cc3c(cnn3C3CCOC3)c2=O)cc1` (stereo not shown) [Example 22, 5-[(4-methoxyphenyl)methyl]-6-methyl-1-tetrahydrofuran-3-yl-pyrazolo[4,3-c]pyridin-4-one] were, in that order, 1200 nM, 1690 nM, 569 nM and 8%.
The like results for `COc1ccc(Cn2c(C)cc3c(cnn3C3CC3)c2=O)cc1` [Example 23, 1-cyclopropyl-5-[(4-methoxyphenyl)methyl]-6-methyl-pyrazolo[4,3-c]pyridin-4-one] were, in that order, 975 nM, 543 nM, 255 nM and -6%.
On to `CCn1ncc2c(=O)n(Cc3ccc(OC)cc3)c(C)cc21` [Example 24, 1-ethyl-5-[(4-methoxyphenyl)methyl]-6-methyl-pyrazolo[4,3-c]pyridin-4-one], for which the IC50 against PDE1C was 1330 nM; against PDE1A it was 1120 nM; against PDE1B, 329 nM. Further, the inhibition at 10 µM against PDE9 came out at 19%.
On to `COc1ccc(Cn2c(C)cc3c(cnn3C3CCCOC3)c2=O)cc1` (stereo not shown) [Example 25, 5-[(4-methoxyphenyl)methyl]-6-methyl-1-tetrahydropyran-3-yl-pyrazolo[4,3-c]pyridin-4-one], for which the IC50 was found to be 644 nM against PDE1C and 825 nM against PDE1A. Further, the inhibition at 10 µM on PDE9 was 8%.
